The values below come from patent US7521448B2, “N-substituted benzimidazolyl c-Kit inhibitors” (OSI Pharmaceuticals, Inc., priority 2003, dated 2009).

Structures can show the parent of a compound that is named as a salt.

The target in test [1] is T1, wild-type c-Kit receptor protein endogenously expressed in H526 cells (Homo sapiens, UniProt P10721).
T1 construct: wild-type c-Kit receptor protein that is endogenously expressed in H526 cells; host or cells: H526 human small cell lung cancer cells
As to the kind of experiment: Assay for inhibition of c-Kit in intact cells (cell-based ELISA of SCF-induced tyrosine phosphorylation). As to conditions: read-out: results in the assay above (IC50, inhibition of SCF-induced tyrosine phosphorylation of c-Kit). The protocol: I. Assay for Inhibition of c-Kit in Intact Cells
The ability of compounds to inhibit the tyrosine kinase activity of c-Kit was determined in a cell-based ELISA assay using the H526 cell line (ATCC # CRL-5811), which was originally derived from a human small cell lung cancer. The assay determines the ability of compounds to block ligand-stimulated tyrosine phosphorylation of the wild-type c-Kit receptor protein that is endogenously expressed in H526 cells. Cells are pre-incubated with compounds at various concentrations prior to addition of stem cell factor (SCF), the ligand for the c-Kit receptor tyrosine kinase. […] The phosphotyrosine content of the receptor protein is then monitored by quantitation of the degree of binding of an antibody that recognizes only the phosphorylated tyrosine residues within the captured protein. The antibody used has a reporter enzyme (e.g. horseradish peroxidase, HRP) covalently attached, such that binding of antibody to phosphorylated c-Kit can be determined quantitatively by incubation with an appropriate HRP substrate. […]
Comparison of the assay signals obtained in the presence of compound with those of the positive and negative controls (cells incubated in the presence or absence of SCF, with no compound added), allows the degree of inhibition of c-Kit receptor tyrosine phosphorylation to be determined over a range of compound concentrations. […]
(An ELISA detects its analyte on a solid surface through an enzyme-linked reagent.)

Test [2] deals with MO7e human leukemia cells. As to conditions: cited from earlier work.
The test system of test [3] is MO7e human leukemia cells. As to conditions: cited from earlier work. The source holds these as a separate data set.

A word on the IC50: it is the concentration at which inhibition is half-maximal.

T1 sequence (P10721 26-976): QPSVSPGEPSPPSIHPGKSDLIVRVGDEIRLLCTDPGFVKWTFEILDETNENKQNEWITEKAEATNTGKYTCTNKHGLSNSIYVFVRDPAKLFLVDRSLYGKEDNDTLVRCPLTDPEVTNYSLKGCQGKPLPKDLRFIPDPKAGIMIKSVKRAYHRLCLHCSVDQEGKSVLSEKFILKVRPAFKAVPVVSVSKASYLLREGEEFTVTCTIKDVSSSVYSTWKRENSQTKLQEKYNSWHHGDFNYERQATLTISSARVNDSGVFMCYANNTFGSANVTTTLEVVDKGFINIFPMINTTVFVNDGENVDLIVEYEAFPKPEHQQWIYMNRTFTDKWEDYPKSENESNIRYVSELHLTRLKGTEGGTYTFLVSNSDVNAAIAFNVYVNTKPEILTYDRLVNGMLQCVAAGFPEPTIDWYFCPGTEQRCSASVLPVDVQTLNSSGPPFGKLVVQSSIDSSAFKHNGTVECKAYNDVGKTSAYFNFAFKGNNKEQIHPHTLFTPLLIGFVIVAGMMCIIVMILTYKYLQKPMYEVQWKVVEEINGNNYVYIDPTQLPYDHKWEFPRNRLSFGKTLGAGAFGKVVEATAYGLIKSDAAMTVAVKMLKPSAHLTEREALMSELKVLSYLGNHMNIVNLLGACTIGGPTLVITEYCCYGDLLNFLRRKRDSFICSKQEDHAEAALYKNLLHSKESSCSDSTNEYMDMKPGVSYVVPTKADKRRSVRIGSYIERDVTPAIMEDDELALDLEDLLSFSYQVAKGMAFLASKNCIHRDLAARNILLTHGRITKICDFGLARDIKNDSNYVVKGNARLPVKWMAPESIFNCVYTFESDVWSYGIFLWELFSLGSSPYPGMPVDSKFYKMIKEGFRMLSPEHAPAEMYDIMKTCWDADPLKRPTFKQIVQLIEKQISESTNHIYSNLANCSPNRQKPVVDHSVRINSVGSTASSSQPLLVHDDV

In the case of `O=C(NCc1cccnc1)c1ccc2c(c1)ncn2-c1ccc(OCCOc2ncc(C(F)(F)F)cc2Cl)cc1` [Compound H13, N-Pyridin-3-ylmethyl-1-{4-[2-(3-chloro-5-trifluoromethylpyridin-2-yloxy)ethoxy]phenyl}-1H-benzimidazole-5-carboxamide], the half-inhibitory concentration (IC50) in test [1] was > 10 µM.

As to `O=C(NCc1cccnc1)c1ccc2c(c1)ncn2-c1cccc(NS(=O)(=O)c2cccc(Cl)c2)c1` [Compound Q5, 1-(3-{[(3-Chlorophenyl)sulfonyl]amino}phenyl)-N-pyridin-3-ylmethyl-1H-benzimidazole-5-carboxamide], the IC50 in test [1] was > 10 µM.

In the case of `Cc1ccc(NC(=O)c2ccc(CN3CCN(C)CC3)cc2)cc1Nc1nccc(-c2cccnc2)n1` [Gleevec™, imatinib mesylate], in test [2] (Kit ligand-stimulated), the “Kit ligand-stimulated growth of MO7e human leukemia cells” value is “inhibited”. Also, the apoptosis entry in test [2] (under Kit ligand-stimulated conditions, MO7e cells) was “induces apoptosis”. Further, the “GM-CSF stimulated growth of MO7e human leukemia cells” value in test [3] is given as “not affected”.
